Experimental data as given in patent US7943628B2, “Pyrimidine derivatives” (Pfizer Limited, priority 2005, dated 2011).
Values belong to the molecule of their own block, whether it stands above or below them.

How the values were obtained:
[1] = target: T1, histamine H4 receptor (Homo sapiens, UniProt Q9H3N8); experiment: H4 binding, method 2 ([3H]-histamine binding with Ysi WGA beads on CHO cell membranes); settings: for Ki: H4 binding, method 2, Ki calculated from IC50 (Cheng-Prussoff)
T1 construct: expressed in transfected cells; host or cells: CHO cells
Outline: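 Membranes from H4-expressing CHO cells were pre-bound to WGA SPA beads, then incubated 90 min at room temperature with 6.5 nM [3H]-histamine in 50 mM Tris-HCl pH 7.4, with or without competitor. Non-specific binding defined with 10 μM JNJ7777120; bound label read by scintillation counting.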

[2] = target: T1, histamine H4 receptor; experiment: H4 binding, method 1 ([3H]-histamine filtration binding on CHO cell membranes); settings: H4 binding, method 1; Ki calculated from IC50 (Cheng-Prussoff)
Outline: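 Membranes from CHO cells expressing human H4 receptor (20-35 μg/well) incubated 90 min at room temperature with 3 nM [3H]-histamine in 50 mM Tris-HCl pH 7.4, ± competitor. Bound label separated by filtration on PEI-soaked GF/B filters and counted by scintillation; non-specific binding with 10 μM JNJ7777120.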

Ki ([1]; read-out: Method 2 (Ki (nM))): 19.3 nM
Ki [2]: 2.7 nM
Molecule: CN[C@@H]1CCN(c2cc(NCC3CC3)nc(N)n2)C1 [Example 9, N^4-(Cyclopropylmethyl)-6-[(3R)-3-(methylamino)pyrrolidin-1-yl]pyrimidine-2,4-diamine]

Ki ([1]; read-out: Method 2 (Ki (nM))): 31.6 nM
Ki [2]: 10.6 nM
Molecule: CN[C@@H]1CCN(c2cc(NCC(C)(C)C)nc(N)n2)C1 [Example 11, N^4-(2,2-Dimethylpropyl)-6-[(3R)-3-(methylamino)pyrrolidin-1-yl] pyrimidine-2,4-diamine]

Ki ([1]; read-out: Method 2 (Ki (nM))): 58.1 nM
Ki [2]: 30.5 nM
Molecule: CC(C)CNc1cc(N2CC[C@@H](N(C)C)C2)ncn1 [Example 20, 6-[(3R)-3-(Dimethylamino)pyrrolidin-1-yl]-N-isobutyl-pyrimidin-4-amine]

Ki ([1]; read-out: Method 2 (Ki (nM))): 59.3 nM
Ki [2]: 58.9 nM
Molecule: CN(C)[C@@H]1CCN(c2cc(NCC(C)(C)C)ncn2)C1 [Example 22, 6-[(3R)-3-(Dimethylamino)pyrrolidin-1-yl]-N-(2,2-dimethylpropyl)pyrimidin-4-amine]

Ki ([1]; read-out: Method 2 (Ki (nM))): 29.9 nM
Ki [2]: 10.7 nM
Molecule: CNC1CN(c2cc(NCC(C)C)ncn2)C1 [Example 49, N-Isobutyl-6-[3-(methylamino)azetidin-1-yl]pyrimidin-4-amine]

Ki ([1]; read-out: Method 2 (Ki (nM))): 59.2 nM
Ki [2]: 37.7 nM
Molecule: CNC1CN(c2cc(NCCC(C)(C)C)ncn2)C1 [Example 59, N-(3,3-Dimethylbutyl)-6-[3-(methylamino)azetidin-1-yl]pyrimidin-4-amine]

Ki ([1]; read-out: Method 2 (Ki (nM))): 14.1 nM
Ki [2]: 8.94 nM
Molecule: CNC1CN(c2cc(NCCC(F)(F)F)nc(N)n2)C1 [Example 62, 6-(3-Methylamino-azetidin-1-yl)-N^4-(3,3,3-trifluoro-propyl)-pyrimidine-2,4-diamine]

Ki ([1]; read-out: Method 2 (Ki (nM))): 12.2 nM
Ki [2]: 1.95 nM
Molecule: CNC1CN(c2cc(NCC3CC3)nc(N)n2)C1 [Example 63, N^4-Cyclopropylmethyl-6-(3-methylamino-azetidin-1-yl)-pyrimidine-2,4-diamine]

Ki ([1]; read-out: Method 2 (Ki (nM))): 4.43 nM
Ki [2]: 4.63 nM
Molecule: CNC1CN(c2cc(NCCC(C)(C)C)nc(N)n2)C1 [Example 64, N^4-(3,3-Dimethyl-butyl)-6-(3-methylamino-azetidin-1-yl)-pyrimidine-2,4-diamine]

Ki ([1]; read-out: Method 2 (Ki (nM))): 1.6 nM
Ki [2]: 0.278 nM
Molecule: CNC1CN(c2cc(NCC3CCC3)nc(N)n2)C1 [Example 67, N^4-Cyclobutylmethyl-6-(3-methylamino-azetidin-1-yl)-pyrimidine-2,4-diamine]

Ki ([1]; read-out: Method 2 (Ki (nM))): 16.8 nM
Ki [2]: 0.58 nM
Molecule: CNC1CN(c2cc(NCCC(C)C)nc(N)n2)C1 [Example 74, 6-[3-(Methylamino)azetidin-1-yl]-N^4-(3-methylbutyl)pyrimidine-2,4-diamine]

Ki ([1]; read-out: Method 2 (Ki (nM))): 1800 nM
Ki [2]: 201 nM
Molecule: CC(C)(C)CCNc1cc(N2CCNCC2)ncn1 [Example 111, N-(3,3-Dimethylbutyl)-6-piperazin-1-ylpyrimidin-4-amine]

Ki ([1]; read-out: Method 2 (Ki (nM))): > 16200 nM
Ki [2]: 839 nM
Molecule: CCN1CCN(c2cc(NCCC(C)(C)C)ncn2)CC1 [Example 270, N-(3,3-Dimethylbutyl)-6-(4-ethylpiperazin-1-yl)pyrimidin-4-amine]

Method 2, % at 40 μM [1]: 13% at 40 μM
Molecule: CC(C)(C)CCNc1cc(N2CC[C@H](N3CCCC3)C2)ncn1 [Example 342, 6-[(3′S)-1,3′-Bipyrrolidin-1′-yl]-N-(3,3-dimethylbutyl)pyrimidin-4-amine]

Method 2, % at 40 μM [1]: 53% at 40 μM
Molecule: CN1CCC(Nc2cc(NCCC(C)(C)C)ncn2)CC1 [Example 343, N-(3,3-Dimethylbutyl)-N′-(1-methylpiperidin-4-yl)pyrimidine-4,6-diamine]

The remaining lines, values behind:

Molecule: CC(C)(C)CNc1cc(N2C[C@H]3CCCN[C@H]3C2)nc(N)n1 (racemic) [Example 30, N^4-(2,2-Dimethylpropyl)-6-[(4aR*,7aR*)-octahydro-6H-pyrrolo[3,4-b]pyridin-6-yl] pyrimidine-2,4-diamine]
Ki ([1]; Method 2 (Ki (nM))): 19.3 nM
Ki [2]: 3.06 nM

Molecule: CN1CCN(c2cc(NCCC(C)(C)C)ncn2)CC1 [Example 1, N-(3,3-Dimethylbutyl)-6-(4-methylpiperazin-1-yl)pyrimidin-4-amine]
Ki ([1]; read-out: Method 2 (Ki (nM))): 335 nM
Ki [2]: 82.3 nM

Molecule: CN[C@@H]1CCN(c2cc(NCC(C)C)ncn2)C1 [Example 14, N-Isobutyl-6-[(3R)-3-(methyl-amino)pyrrolidin-1-yl]pyrimidin-4-amine]
Ki ([1]; read-out: Method 2 (Ki (nM))): 23.3 nM
Ki [2]: 13.6 nM

Molecule: CNC1CN(c2cc(NC(C)C)nc(N)n2)C1 [Example 60, N^4-Isopropyl-6-(3-methylamino-azetidin-1-yl)-pyrimidine-2,4-diamine]
Ki ([1]; read-out: Method 2 (Ki (nM))): 28.8 nM
Ki [2]: 3.57 nM

Molecule: CNC1CN(c2cc(NCC(C)(C)C)nc(N)n2)C1 [Example 61, N^4-(2,2-Dimethylpropyl)-6-[3-(methylamino)azetidin-1-yl]pyrimidine-2,4-diamine]
Ki ([1]; read-out: Method 2 (Ki (nM))): 1.33 nM
Ki [2]: 1.66 nM

Molecule: CNC1CN(c2cc(NCc3cccc(F)c3)nc(N)n2)C1 [Example 65, N^4-(3-Fluoro-benzyl)-6-(3-methylamino-azetidin-1-yl)-pyrimidine-2,4-diamine]
Ki ([1]; read-out: Method 2 (Ki (nM))): 19.8 nM
Ki [2]: 17.5 nM

Molecule: CNC1CN(c2cc(NCC3CCCC3)nc(N)n2)C1 [Example 68, N^4-Cyclopentylmethyl-6-(3-methylamino-azetidin-1-yl)-pyrimidine-2,4-diamine]
Ki ([1]; read-out: Method 2 (Ki (nM))): 6.26 nM
Ki [2]: 0.979 nM

Molecule: CNC1CN(c2cc(NCC(C)C)nc(N)n2)C1 [Example 71, N^4-Isobutyl-6-[3-(methylamino)azetidin-1-yl]pyrimidine-2,4-diamine]
Ki ([1]; read-out: Method 2 (Ki (nM))): 14 nM
Ki [2]: 1.29 nM

Molecule: CN1CCN(c2cc(NCC(C)(C)C)ncn2)CC1 [Example 99, N-(2,2-Dimethylpropyl)-6-(4-methylpiperazin-1-yl)pyrimidin-4-amine]
Ki ([1]; Method 2 (Ki (nM))): 38.1 nM
Ki [2]: 23.6 nM

Molecule: CC(C)Nc1cc(N2CCN(C)CC2)nc(N)n1 [Example 119, N^4-Isopropyl-6-(4-methylpiperazin-1-yl)pyrimidine-2,4-diamine]
Ki ([1]; Method 2 (Ki (nM))): 7.8 nM
Ki [2]: 3.44 nM

Molecule: CCNc1cc(N2CCN(C)CC2)nc(N)n1 [Example 120, N^4-Ethyl-6-(4-methylpiperazin-1-yl)pyrimidine-2,4-diamine]
Ki ([1]; Method 2 (Ki (nM))): 11.2 nM
Ki [2]: 4.89 nM

Molecule: CC(C)CNc1cc(N2CCN(C)CC2)nc(N)n1 [Example 121, N^4-Isobutyl-6-(4-methylpiperazin-1-yl)pyrimidine-2,4-diamine]
Ki ([1]; Method 2 (Ki (nM))): 6.64 nM
Ki [2]: 2.18 nM

Molecule: CN1CCN(c2cc(NCC3CC3)nc(N)n2)CC1 [Example 122, N^4-(Cyclopropylmethyl)-6-(4-methylpiperazin-1-yl)pyrimidine-2,4-diamine]
Ki ([1]; Method 2 (Ki (nM))): 8.65 nM
Ki [2]: 3.65 nM

Molecule: CN1CCC(N(C)c2cc(NCCC(C)(C)C)ncn2)CC1 [Example 279, N′-(3,3-Dimethylbutyl)-N-methyl-N-(1-methylpiperidin-4-yl)pyrimidine-4,6-diamine]
Ki ([1]; read-out: Method 2 (Ki (nM))): > 9130 nM
Ki [2]: 1370 nM

Molecule: COCCNc1cc(N[C@H]2CCNC2)ncn1 [Example 344, N-(2-Methoxyethyl)-N′-[(3S)-pyrrolidin-3-yl]pyrimidine-4,6-diamine]
Method 2, % at 40 μM [1]: 40% at 40 μM

Molecule: c1nc(NC[C@H]2CCCO2)cc(N[C@@H]2CCNC2)n1 [Example 345, N-[(3R)-Pyrrolidin-3-yl]-N′-[(2R)-tetrahydrofuran-2-ylmethyl]pyrimidine-4,6-diamine]
Method 2, % at 40 μM [1]: 49% at 40 μM

Molecule: c1ccc(CCNc2cc(N[C@@H]3CCNC3)ncn2)cc1 [Example 346, N-(2-Phenylethyl)-N′-[(3R)-pyrrolidin-3-yl]pyrimidine4,6-diamine]
Ki ([1]; read-out: Method 2 (Ki (nM))): 38400 nM

Molecule: N-Methyl-6-[3-(methylamino)azetidin-1- yl]pyrimidin-4-amine [Example 58]
Ki ([1]; read-out: Method 2 (Ki (nM))): 301 nM
